Laboratory results taken from BigSolDB 2.1.

Nc1cccc2ccccc12
solubility (mole fraction) (in acetone, 273.15 K): 0.552 | solubility (mole fraction) (in acetone, 278.15 K): 0.59 | solubility (mole fraction) (in acetone, 283.15 K): 0.636 | solubility (mole fraction) (in acetone, 288.15 K): 0.684 | solubility (mole fraction) (in acetone, 293.15 K): 0.724 | solubility (mole fraction) (in acetone, 298.15 K): 0.778 | solubility (mole fraction) (in acetone, 303.15 K): 0.839 | solubility (mole fraction) (in acetone, 308.15 K): 0.898 | solubility (mole fraction) (in acetonitrile, 273.15 K): 0.527 | solubility (mole fraction) (in acetonitrile, 278.15 K): 0.572 | solubility (mole fraction) (in acetonitrile, 283.15 K): 0.619 | solubility (mole fraction) (in acetonitrile, 288.15 K): 0.658 | solubility (mole fraction) (in acetonitrile, 293.15 K): 0.708 | solubility (mole fraction) (in acetonitrile, 298.15 K): 0.766 | solubility (mole fraction) (in acetonitrile, 303.15 K): 0.829 | solubility (mole fraction) (in acetonitrile, 308.15 K): 0.878 | solubility (mole fraction) (in cyclohexane, 278.15 K): 0.00758 | solubility (mole fraction) (in cyclohexane, 283.15 K): 0.00992 | solubility (mole fraction) (in cyclohexane, 288.15 K): 0.014 | solubility (mole fraction) (in cyclohexane, 293.15 K): 0.0185 | solubility (mole fraction) (in cyclohexane, 298.15 K): 0.0263 | solubility (mole fraction) (in cyclohexane, 303.15 K): 0.0364 | solubility (mole fraction) (in cyclohexane, 308.15 K): 0.0621 | solubility (mole fraction) (in ethanol, 273.15 K): 0.133 | solubility (mole fraction) (in ethanol, 278.15 K): 0.176 | solubility (mole fraction) (in ethanol, 283.15 K): 0.231 | solubility (mole fraction) (in ethanol, 288.15 K): 0.323 | solubility (mole fraction) (in ethanol, 293.15 K): 0.431 | solubility (mole fraction) (in ethanol, 298.15 K): 0.555 | solubility (mole fraction) (in ethanol, 303.15 K): 0.698 | solubility (mole fraction) (in ethanol, 308.15 K): 0.833 | solubility (mole fraction) (in ethyl acetate, 273.15 K): 0.49 | solubility (mole fraction) (in ethyl acetate, 278.15 K): 0.528 | solubility (mole fraction) (in ethyl acetate, 283.15 K): 0.57 | solubility (mole fraction) (in ethyl acetate, 288.15 K): 0.611 | solubility (mole fraction) (in ethyl acetate, 293.15 K): 0.66 | solubility (mole fraction) (in ethyl acetate, 298.15 K): 0.728 | solubility (mole fraction) (in ethyl acetate, 303.15 K): 0.788 | solubility (mole fraction) (in ethyl acetate, 308.15 K): 0.863 | solubility (mole fraction) (in isobutanol, 273.15 K): 0.0584 | solubility (mole fraction) (in isobutanol, 278.15 K): 0.0819 | solubility (mole fraction) (in isobutanol, 283.15 K): 0.118 | solubility (mole fraction) (in isobutanol, 288.15 K): 0.157 | solubility (mole fraction) (in isobutanol, 293.15 K): 0.251 | solubility (mole fraction) (in isobutanol, 298.15 K): 0.382 | solubility (mole fraction) (in isobutanol, 303.15 K): 0.585 | solubility (mole fraction) (in isobutanol, 308.15 K): 0.841 | solubility (mole fraction) (in isopropanol, 273.15 K): 0.0524 | solubility (mole fraction) (in isopropanol, 278.15 K): 0.0814 | solubility (mole fraction) (in isopropanol, 283.15 K): 0.123 | solubility (mole fraction) (in isopropanol, 288.15 K): 0.198 | solubility (mole fraction) (in isopropanol, 293.15 K): 0.294 | solubility (mole fraction) (in isopropanol, 298.15 K): 0.461 | solubility (mole fraction) (in isopropanol, 303.15 K): 0.637 | solubility (mole fraction) (in isopropanol, 308.15 K): 0.845 | solubility (mole fraction) (in methanol, 273.15 K): 0.192 | solubility (mole fraction) (in methanol, 278.15 K): 0.245 | solubility (mole fraction) (in methanol, 283.15 K): 0.296 | solubility (mole fraction) (in methanol, 288.15 K): 0.375 | solubility (mole fraction) (in methanol, 293.15 K): 0.477 | solubility (mole fraction) (in methanol, 298.15 K): 0.591 | solubility (mole fraction) (in methanol, 303.15 K): 0.703 | solubility (mole fraction) (in methanol, 308.15 K): 0.845 | solubility (mole fraction) (in n-butanol, 273.15 K): 0.112 | solubility (mole fraction) (in n-butanol, 278.15 K): 0.145 | solubility (mole fraction) (in n-butanol, 283.15 K): 0.194 | solubility (mole fraction) (in n-butanol, 288.15 K): 0.247 | solubility (mole fraction) (in n-butanol, 293.15 K): 0.353 | solubility (mole fraction) (in n-butanol, 298.15 K): 0.487 | solubility (mole fraction) (in n-butanol, 303.15 K): 0.664 | solubility (mole fraction) (in n-butanol, 308.15 K): 0.84 | solubility (mole fraction) (in n-butyl acetate, 273.15 K): 0.441 | solubility (mole fraction) (in n-butyl acetate, 278.15 K): 0.485 | solubility (mole fraction) (in n-butyl acetate, 283.15 K): 0.532 | solubility (mole fraction) (in n-butyl acetate, 288.15 K): 0.585 | solubility (mole fraction) (in n-butyl acetate, 293.15 K): 0.645 | solubility (mole fraction) (in n-butyl acetate, 298.15 K): 0.706 | solubility (mole fraction) (in n-butyl acetate, 303.15 K): 0.777 | solubility (mole fraction) (in n-butyl acetate, 308.15 K): 0.849 | solubility (mole fraction) (in n-heptane, 273.15 K): 0.00549 | solubility (mole fraction) (in n-heptane, 278.15 K): 0.0073 | solubility (mole fraction) (in n-heptane, 283.15 K): 0.00879 | solubility (mole fraction) (in n-heptane, 288.15 K): 0.0115 | solubility (mole fraction) (in n-heptane, 293.15 K): 0.0155 | solubility (mole fraction) (in n-heptane, 298.15 K): 0.0205 | solubility (mole fraction) (in n-heptane, 303.15 K): 0.026 | solubility (mole fraction) (in n-heptane, 308.15 K): 0.0346 | solubility (mole fraction) (in n-propanol, 273.15 K): 0.0925 | solubility (mole fraction) (in n-propanol, 278.15 K): 0.133 | solubility (mole fraction) (in n-propanol, 283.15 K): 0.181 | solubility (mole fraction) (in n-propanol, 288.15 K): 0.256 | solubility (mole fraction) (in n-propanol, 293.15 K): 0.365 | solubility (mole fraction) (in n-propanol, 298.15 K): 0.512 | solubility (mole fraction) (in n-propanol, 303.15 K): 0.669 | solubility (mole fraction) (in n-propanol, 308.15 K): 0.838
